One data set deals with immature female rats. As to the kind of experiment: Effect on uterine wet weights in immature female rats. The data set is classed as in vivo, rat. As for the experimental part: Animals were treated once per day by gavage for three days. Following euthanasia on day four (24 h after the last dose) the uteri were removed, stripped of remaining fat and mesentery and weighed. The dose of the compound of example 3 chosen (50 mg/kg) was 500 fold higher than the efficacious dose in the above experiments.

The subject of data set [1] is HLA-B27 rats. Kind of data set: Histological scoring of disease severity in the colon of HLA-B27 rats. The format is in vivo, rat. Conditions: for Fibrosis (0-2) / Inflammation (0-3) / Lesion depth (0-2) / Total score / Ulceration (0-2): histological score, colon. As for the experimental part: (§1) A representative NF-kB selective ER ligand was evaluated in the HLA rat standard pharmacological test procedure, which emulates inflammatory bowel disease in humans. The following briefly describes the procedure used and results obtained. Male HLA-B27 rats were obtained from Taconic and provided unrestricted access to a food (PMI Lab diet 5001) and water. At the start of the study, rats were 22-26 weeks old.
(§2) Rats were dosed orally once per day for 5 days with one of the regimens listed below. There were five rats in each group and the last dose was administered two hours before euthanasia. • vehicle (50% DMSO/50% Dulbecco's PBS) • 17α-ethinyl-17β-estradiol (EE, 10 μg/kg) • Compound A (150 μg/kg) • Compound A (50 μg/kg) • Compound A (1.5 μg/kg) Stool quality was observed daily and graded according to the following scale: Diarrhea=3; soft stool=2; normal stool=1. At the end of the study, serum was collected and stored at −70° C. A section of colon was prepared for histological analysis and an additional segment was analyzed for myeloperoxidase activity.
Histological analysis. Colonic tissue was immersed in 10% neutral buffered formalin. Each specimen of colon was separated into four samples for evaluation. The formalin-fixed tissues were processed in a Tissue Tek vacuum infiltration processor (Miles, Inc; West Haven, Conn.) for paraffin embedding. The samples were sectioned at 5 μm and then stained with hematoxylin and eosin (H&E) for blinded histologic evaluations using a scale modified after Boughton-Smith. Sections of colonic tissue were evaluated for several disease indicators and given relative scores. After the scores were completed the samples were unblinded, and data were tabulated and analyzed by ANOVA linear modeling with multiple mean comparisons.

Data set [2] relates to HLA-B27 rats. Kind of data set: Myeloperoxidase activity in colon of HLA-B27 rats (neutrophil infiltration). The data set is classed as in vivo, rat. As to the method: as §1
Rats were dosed orally once per day for 5 days with one of the regimens listed below. […] A section of colon was prepared for histological analysis and an additional segment was analyzed for myeloperoxidase activity.
Myeloperoxidase activity [Bradley, et al., Blood 60: 618-622 (1982)]. Myeloperoxidase activity was assessed as a measure of neutrophil infiltration into the colon. […]
Tissue was resuspended and homogenized in 2.5ml (1:5 w/v) of 50 mM H2KPO4 with 10 mM EDTA and 0.5% Hex Ammonium Bromide to help solubilize the intracellular MPO. […] The supernatant was analyzed following these steps.
The test mixture was prepared by adding 2.9 ml of 50 mM H2KPO4 with 0.167 O-Dianisidine/ml with 0.0005% H2O2 into a reaction tube. […] OD was measured every 2 minutes reaction time at 460 nm against a blank containing 2.9 ml of the reaction mixture and 100 μl of the 0.5% ammonium bromide solution. […]

Data set [3] has as its system HLA-B27 rats. Kind of data set: Stool character in the HLA rat standard pharmacological test procedure. The data set is classed as in vivo. As for the experimental part:
as §1, §2

The mark [4] stands for this setting: 1.5 mcg/kg orally once per day for 5 days.
Setting [5] is: 50 mcg/kg orally once per day for 5 days.
The mark [6] stands for this setting: 150 mcg/kg orally once per day for 5 days.

`C#C[C@]1(O)CC[C@H]2[C@@H]3CCc4cc(O)ccc4[C@H]3CC[C@@]21C` [17α-ethinylestradiol, 17α-ethinyl-17β-estradiol, reference compound]: the Uterine wet weight entry in the data set with immature female rats (1.5 μg/kg (EC80)) is “significantly stimulated”.

Broadly, the melting point is the temperature, or range, at which the solid turns liquid. As for `CC1c2cc(F)ccc2-c2ccccc2N1S(=O)(=O)c1ccc(O)cc1` (centres unmarked) [Example 3, 4-[(8-Fluoro-6-methylphenanthridin-5(6H)-yl)sulfonyl]phenol], the melting point was found to be 188 °C. Besides, in the data set with HLA-B27 rats [1] (50 μg/kg oral), the “All disease parameters measured (ulcerations, lesions, fibrosis, inflammatory cells), colon histology” value was “significantly improved”. Besides, in the data set with HLA-B27 rats [1] (150 μg/kg oral), the “All disease parameters measured (ulcerations, lesions, fibrosis, inflammatory cells), colon histology” value was “significantly improved”. Moreover, in the data set with HLA-B27 rats [1] (setting [4]), the “Fibrosis (0-2)” value stood at 0.94 ± 0.52, the “Inflammation (0-3)” value worked out at 2.50 ± 0.35, the “Lesion depth (0-2)” value is given as 1.1 ± 0.35 and the Total score was 5.75 ± 1.41. Further, the “Ulceration (0-2)” value in the data set on HLA-B27 rats [1] (setting [4]) came out at 1.25 ± 0.24. Moreover, in the data set on HLA-B27 rats [1] (setting [5]), the “Fibrosis (0-2)” value stood at 0.38 ± 0.32, the “Inflammation (0-3)” value is on record as 1.69 ± 0.52, the “Lesion depth (0-2)” value is 0.56 ± 0.24 and the Total score amounted to 3.25 ± 1.0. For the same compound, the “Ulceration (0-2)” value in the data set with HLA-B27 rats [1] (setting [5]) was found to be 0.63 ± 0.25. In the data set on HLA-B27 rats [1] (setting [6]), the “Fibrosis (0-2)” value was 0.19 ± 0.24, the “Inflammation (0-3)” value came out at 1.50 ± 0.20, the “Lesion depth (0-2)” value amounted to 0.31 ± 0.24 and the Total score worked out at 2.38 ± 0.83. Moreover, the “Ulceration (0-2)” value with HLA-B27 rats [1] (setting [6]) is 0.38 ± 0.32. Moreover, the “MPO activity in colon” value in the data set with HLA-B27 rats [2] (150 μg/kg oral) is “effectively inhibit MPO activity”. In the data set with HLA-B27 rats [2] (the lower doses (50 and 1.5 μg/kg) oral), the “MPO activity in colon” value is on record as “no effect”. Moreover, the Stool score result in the data set on HLA-B27 rats [3] (1.5 μg/kg oral) is “No effect”. Moreover, in the data set on HLA-B27 rats [3] (50 μg/kg oral), the Stool score entry was “No effect”. The Stool score entry with HLA-B27 rats [3] (150 μg/kg oral, after 4 days of treatment) is “improvement in stool score”. Besides, the Uterine wet weight entry in the data set with immature female rats (50 mg/kg orally once per day for three days) is reported as “no increase”.

The compound `COc1cc(OC)cc(N2CCN(C(=O)[C@](C)(C#N)[C@H](c3ccccc3OC)c3cccc4ccccc34)CC2)c1` [Example 4, (S)-3-[4-(3,5-dimethoxyphenyl)piperazin-1-yl]-2-[(S)-(2-methoxyphenyl)(1-naphthyl)methyl]-2-methyl-3-oxopropanenitrile] registered a melting point of 186 to 188 °C.

Values taken from patent US20050119276A1, “Methods of treating inflammatory bowel disease using NF-kB inhibitors” (Wyeth, priority 2003, published 2005).
